We go through two compounds from patent US7026344B2, “Treating sickle cell disease” (priority 2000, dated 2006).

“And” between values parts separate entries of the source, which are not always exact repeats. Equal entries are not always repeated. Where two headings read alike, the source gives them in different places.

For experiment [1], the system named is primary erythroid progenitors (BFU-E colonies) from Hb SS patients. Briefly: BFU-E colony growth in methylcellulose culture, Hb SS patients. Type of experiment: cell-based, human. Conditions: for fold decrease in BFU-E colony number: 0 versus 100 μM, Hb SS patients; for BFU-E Difference: 0 vs 100 μM, sickle cell patients. As to the method:
(§1) BFU-E Colony Growth. Mononuclear cells were isolated from the peripheral blood of each patient studied by density gradient centrifugation using Histapaque-1077 (Sigma). Erythroid progenitors were obtained in methylcellulose culture. ZL was added on day 0 at 25, 50, 75, or 100 μM concentrations for 13–14 days at which time the number of BFU-E colonies were counted on an inverted microscope and harvested for hemoglobin determinations.
The capability of ZL to induce hemoglobin F in primary erythroid progenitors, grown from peripheral blood mononuclear cells (MNC) was analyzed. BFU-E colonies were grown in methylcellulose cultures supplemented with erthyopoietin and interleukin-3 and ZL at concentration from 0 to 100 μM. Three patients homozygous for hemoglobin S (Hb SS) were analyzed with triplicate experiments. The average BFU-E colony number was 123.2±18.6 without ZL compared to 10.6±2.0 at 100 μM concentrations, p<0.05 (Table 1). […] All pair-wise comparisons for BFU-E and hemoglobin F between 0μ and other concentrations (25, 50, 75 and 100 μM) were significant at p<0.05. The correlation coefficient between the number of BFU-E colonies or percent hemoglobin F and different levels of ZL is −0.90 and +0.79, respectively (p<0.05). […] (See Yang et al., BFU-E colony growth in response to hydroxyurea: correlation between in vitro and in vivo fetal hemoglobin induction. Am J Hematol. 1997; 56:252–258). […] HU either was more efficient in inhibiting BFU-E colony growth or alternatively the baseline number of colonies on an average was higher for the Hb SS patients in the HU cohort.

For experiment [2], the system named is human γ (Huγ) mRNA in K562 cells. Briefly: γ globin mRNA induction in K562 cells by RNase protection assay. It counts as cell-based. As to conditions: K562, 48 hours, normalized to GAPD vs untreated. The procedure: Cell Culture. K562 cells were grown in suspension cultures in RPMI-1640 containing 10% fetal bovine serum, penicillin (100 U/ml) and streptomycin (0.1 mg/ml in a humidified incubator at 37° C. in a 5%CO2/95% air atmosphere. The following experimental conditions were analyzed in triplicate with 2×10^6 cells per well: an untreated control, ZL dissolved in 0.1% dimethylsulfoximide (DMSO) at final concentrations of […], HU at […] and two positive controls hemin (50 mM) and sodium butyrate (NB) 2 mM. The K562 cells were induced for 72 hours then RNA isolated for further analysis. Cell viability was completed by 2% trypan blue exclusion at timnes 0 and 72 hours.
RNA Isolation. RNA was isolated using RNA Stat-60 (TEL-TEST “B”, Inc., Friendswood, Tex.) according to the manufacturer's instructions. In brief, cell pellets will be suspended in RNA Stat-60 (1 ml) and chloroform (200 μl), and the RNA extracted and precipitated with isopropanol.
RNase Protection Analysis. MRNA levels will be quantitated by RNase protection assay (RPA) with probes designed to yield protected fragments for human γ (Huγ)and the internal control glyceraldehydes-3-phosphate dehydrogenase (GAPD). Huγ mRNA levels were normalized to that of GAPD and compared to the untreated K562 cells. (Zar: Statistical Analysis, Englewood)
Several pharmacological hemoglobin F inducers such as HU, 5-azacytidine, erythropoietin, didox, and butyrate alter γ gene expression in culture. The induction of γ gene activity in culture is a good indicator of potential clinical usefulness. Therefore the capability of ZL to induce γ gene activity at the mRNA level was tested. K562 cells were cultured in ZL from 0 to 100 μM or HU (50μ to 100 μM) for 48 hours. Total cellular RNA was analyzed by RPA for γ mRNA levels. An increase in γ mRNA for ZL at 20 μM with a maximal response at 75 μM (FIG. 4A) was observed. The level of γ gene mRNA synthesis was quantitated relative to the internal control, CAPD. […] K562 cell viability was decreased 10% when measured using trypan blue exclusion at 75 μM and 100 μM concentrations for both ZL and HU. The level of γ gene induction was 3.9 fold and 10-fold for the positive controls NB and hemin, respectively.

For experiment [3], the system named is primary erythroid progenitors (BFU-E colonies) from Hb SS patients. As to conditions: HU 100 μM, Hb SS patients of the HU cohort (Yang et al.); cited from earlier work.
The subject of experiment [4] is fetal hemoglobin production in primary erythroid progenitors from Hb SS patients. Conditions: HU 100 μM, Hb SS patients of the HU cohort (Yang et al.); cited from earlier work.
Experiment [5] has as its system erythroid progenitors (BFU-E colonies) from normal donors. Briefly: BFU-E colony growth in methylcellulose culture, normal donors. It counts as cell-based, human. As to the method: as §1
The cytotoxic effect of HU as been proposed as a basic mechanism involved in hemoglobin F induction. In the absence of this characteristic for ZL, whether γ gene expression would be, induced in erythroid progenitors obtained from normal donors was tested. Utilizing the same protocol, BFU-E colonies from normal donors wee analyzed in the presence of ZL at 0 to 100 μM concentrations. In normal erythroid progenitors, a decrease in BFU-E colony number from 94±30.6 to 10.1±2.4 (FIG. 3A) and an increase in hemoglobin F from 1.4±0.05% to […] (FIG. 3B) was observed. This pattern was similar to that obtained for Hb SS progenitors. Of note is the lower average BFU-E colony number for hemoglobin A progenitors as compared with hemoglobin S. This probably reflects the absence of hemolysis and increased RBC production in normals as compared to sickle cell patients. This represents a 9.3-fold decrease and a 4.3-fold increase in BFU-E and hemoglobin F, respectively.

For experiment [6], the system named is fetal hemoglobin production in normal erythroid progenitors. Briefly: Hemoglobin F determination in erythroid progenitors, normal donors. Type of experiment: cell-based, human. The procedure:
as §1
Hemoglobin F determination. The erythroid progenitors were collected, washed in PBS then lysed at room temperature in 200 μl of water. The supernatant was split into two tubes, one for total hemoglobin determination and one for hemoglobin F determination. In brief, IgG (10 μl), 1.2 N NaOH (7 μl) and saturated (NH4)2SO4 (70 μl) were added to the hemoglobin F sample. The denatured hemoglobin was pelleted and the supernatant containing hemoglobin F was mixed with 500 μl of tetramethyl benzidine and 500 μl of H2O2 at room temperature then quantitated on a spectrophotometer at 600 nm. The percentage of fetal hemoglobin to total hemoglobin was determined.
The cytotoxic effect of HU as been proposed as a basic mechanism involved in hemoglobin F induction. […] Utilizing the same protocol, BFU-E colonies from normal donors wee analyzed in the presence of ZL at 0 to 100 μM concentrations. […]

On to `NC(=O)NO` [HU, Hydroxyurea], for which, in experiment [1], the “fold decrease in BFU-E colony number” value was found to be 21.3 fold and the “BFU-E Difference” value was 146.4 ± 9.1. The “fold increase in γ mRNA” value in experiment [2] (HU 100 μM) was 2.7 fold. Also, in experiment [3], the BFU-E was 7.2. The HbF in experiment [4] is reported as 19.4%.
Consider `CC(c1cc2ccccc2s1)N(O)C(N)=O` (racemic) [ZL, (±)-1-(1-Benzo[b]thien-2-ylethyl)-1-hydroxyurea], for which the “fold decrease in BFU-E colony number” value in experiment [1] is 11.7 fold. Further, the “BFU-E Difference” value in experiment [1] was 112.6 ± 19.1. Further, the BFU-E was 137 and 61 and 91 in experiment [1] (zileuton 25 μM, individual Hb SS patients (No. 1-3), colony number, 13–14 days); 96.4 ± 11.1 in experiment [1] (zileuton 25 μM, mean ± SEM of three Hb SS patients); 62 and 47 and 72 in experiment [1] (zileuton 50 μM, individual Hb SS patients (No. 1-3), colony number); 60.4 ± 4.3 in experiment [1] (zileuton 50 μM, mean ± SEM of three Hb SS patients); 23 and 27 and 43 in experiment [1] (zileuton 75 μM, individual Hb SS patients (No. 1-3), colony number); 31.1 ± 3.2 in experiment [1] (zileuton 75 μM, mean ± SEM of three Hb SS patients). Moreover, the BFU-E in experiment [1] (zileuton 100 μM, individual Hb SS patients (No. 1-3), colony number) was 13 and 12 and 7; in experiment [1] (zileuton 100 μM, mean of three Hb SS patients), 10.6±2.0 and 10.5; in experiment [1] (zileuton 100 μM, mean of three Hb SS patients, listed as zileuton), 10.5 ± 1.3. For the same compound, the “fold decrease in BFU-E” value in experiment [5] (ZL 0 vs 100 μM) was found to be 9.3 fold. Also, the BFU-E colony number in experiment [5] (ZL 100 μM) was found to be 10.1±2.4. For the same compound, the “fold increase in hemoglobin F” value in experiment [6] (ZL 0 vs 100 μM) is 4.3 fold. Also, the “hemoglobin F” value in experiment [6] (ZL 100 μM) came to 6.0%. Also, the “fold increase in γ mRNA” value in experiment [2] (ZL 20 μM) came out at 2.6 fold. In experiment [2] (ZL 75 μM), the “fold increase in γ mRNA (maximal)” value was 4.1 fold.
